Consider 43 compounds from PubChem BioAssay (NCI).

Where “and” joins values, the source holds several entries; their conditions need not be identical. Equal values may be shown once.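 Values below derive from 48-hour exposures of cells grown in 96-well plates, with endpoints linearly interpolated between the two concentrations bracketing the appropriate inhibition level. Here, GI50 denotes the concentration required for 50% inhibition of growth. TGI: total growth inhibition.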

For the assay, the system named is MDA-MB-468 breast. Briefly: NCI tumour cell line growth inhibition, 48 h.

Consider `O=c1c2sc3ccccc3c2nnn1-c1ccc(F)c(Cl)c1`, for which the GI50 was 12.8 µM and the TGI was 99.5 µM.

For `CC(=O)Nc1nc(C)c(-c2csc(Nc3ccccc3)n2)s1`, the GI50 is 1.74 µM and the TGI was determined as 9.01 µM.

With `CCCCCCCCNC(=O)c1ccc(Cn2c(CCCC)nc3c(N)nc4ccccc4c32)cc1`, the GI50 is 1.38 µM and the TGI was 3.06 µM.

For the compound `CCCCCC/C=C\CCCCCCCCCc1cc(O)cc(OC)c1O`, the GI50 was 0.296 µM and the TGI amounted to 0.828 µM.

Regarding `O=c1c2c3c(sc2n2c(CCl)nnc2n1Cc1ccccc1)CCCC3`, the GI50 is 1.77 µM and the TGI amounted to 3.72 µM.

For the compound `Cc1ccc2nc3ccccc3c(NCc3ccccc3)c2c1`, the GI50 was 1.52 µM and the TGI is 5.54 µM.

For the compound `Cc1ccc(S(=O)(=O)Oc2ccccc2-c2ccccc2)cc1`, the GI50 is 0.866 µM and the TGI was determined as 4.22 µM.

As for `COc1ccc(NC(=O)c2sc3nc(C)c(C(=O)/C=C/c4ccccc4)cc3c2N)cc1`, the GI50 is 0.92 µM and the TGI was 2.03 µM.

In the case of `CCCCCCC/C(=N\N=C(N)N)c1ccc(O)cc1`, the GI50 was 1.3 µM and the TGI stood at 2.6 µM.

Take `COc1ccc(C(=O)C2C(C#N)C(C#N)C3C=Cc4ccccc4N32)cc1` (stereo unspecified): the GI50 is 2.31 µM and the TGI is > 100 µM.

Take `CC1=C2[C@H]3OC(=O)[C@@H](C)[C@@H]3CC[C@@]2(C)C=CC1=O`: the GI50 is > 100 µM and the TGI is > 100 µM.

Turning to `Nc1c(C(=O)Nc2ccccc2)sc2nc3c(cc12)C(O)CCC3` (stereo unspecified), the GI50 was 0.29 µM and the TGI was > 100 µM.

As for `Cn1ccnc1C(=O)/C=C/c1ccc(C(=O)Nc2ccccc2F)cc1`, the GI50 was 2.49 µM and the TGI stood at 8.3 µM.

As for `COc1ccc2nc(NC(=O)COc3cc(/C=C\c4cc(OC)c(OC)c(OC)c4)ccc3OC)sc2c1`, the GI50 is 2.29 µM and the TGI is 8.37 µM.

For `O=C(CC1(O)C(=O)N(Cc2ccccc2)c2ccc(Br)cc21)c1ccc(C(=O)NCC2CCC3(CC2)OOC2(CCCCC2)OO3)cc1` (stereo unspecified), the GI50 is 2.01 µM and the TGI was 6.72 µM.

As to `CCCCCCCCCCCCCCNc1nc(C(=O)OCC)ncc1-c1ccc(C(F)(F)F)cc1`, the GI50 was > 100 µM and the TGI is > 100 µM.

On to `O=C1N=C(c2c(-c3[nH]c(=O)c4ccc(Br)cc4c3O)c(O)c3ccccc3c2O)C(=O)c2cc(Br)ccc21`, for which the GI50 was 0.412 µM and the TGI stood at 1.49 µM.

On to `N#CCCN1C/C(=C/c2ccccc2)C(=O)/C(=C/c2ccccc2)C1`, for which the GI50 is 1.68 µM and the TGI was found to be 3.78 µM.

In the case of `CCCOc1cc2c(cc1O)CC[C@@H]1[C@@H]2CC[C@]2(C)[C@@H](O)CC[C@@H]12`, the GI50 is 2.8 µM and the TGI was 16.7 µM.

For the compound `COc1ccc2[nH]c(C(=O)N3CCN(C(=O)OCc4ccc5c(Br)cc(Br)c(O)c5n4)CC3)cc2c1`, the GI50 was 0.209 µM and the TGI was 0.506 µM.

With `Cc1ccncc1N1CCN(c2ccnc(Cl)c2)C1=O`, the GI50 was > 100 µM and the TGI is > 100 µM.

As for `COc1ccc(C(=O)NCCNc2nccc(-c3c(-c4ccc(F)cc4)nc4sccn34)n2)cc1`, the GI50 is 4.74 µM and the TGI came out at 41 µM.

With `NCCOc1ncccc1/C=C1\C2C=CC=CC2C2C=CC(F)=CC12` (stereo unspecified), the GI50 was 0.483 µM and the TGI came to 2.01 µM.

`O=C(CCl)Nc1ccc2c(Nc3cc(O)ccc3Cl)ncnc2c1`: the GI50 was 2.29 µM and the TGI came to 7.68 µM.

`c1cc2ccc3cc2cc1CNCCN1CCNCc2ccc4ccc(cc4c2)CNCCN(CCNC3)CCNCc2ccc3ccc(cc3c2)CNCC1`: the GI50 was 2.01 µM and the TGI was 4 µM.

For `COc1cc(C(=O)/C=C/c2cc(-c3cc(OC)c(OC)c(OC)c3)n[nH]2)cc(OC)c1OC`, the GI50 is 1.15 µM and the TGI came out at 2.48 µM.

Take `NC(=O)[C@@H](CCC(F)(F)F)N(Cc1ccc(-c2ncon2)cc1F)S(=O)(=O)c1ccc(Cl)cc1`: the GI50 is 7.26 µM and the TGI was > 100 µM.

Consider `COC(=O)N1c2ccc3c(nc(Cc4ccccc4)n3[C@H]3CCC[C@H](C(=O)O)C3)c2CC[C@@H]1C`, for which the GI50 is 3.82 µM and the TGI is > 100 µM.

Consider `COc1ccc(C(=O)/C=C/c2ccc(OCc3ccc(Cl)cc3)cc2)cc1OC`, for which the GI50 was 40.6 µM and the TGI is 271 µM.

As to `C=CCCCC(=O)CCC(=O)OCC1O[C@@H](O[C@@H]2C(O)[C@@H](OC(C)=O)C(C)O[C@H]2O[C@H](CC=C)CCCCC)C(O)[C@@H](OC(=O)/C(C)=C/C)[C@@H]1OC(=O)/C=C/c1ccccc1` (stereo partly specified), the GI50 was 0.0321 µM and the TGI came to 1.22 µM.

For the compound `Cn1cc(-c2ccc(-c3cn(C)c4ncccc34)[nH]2)c2cccnc21`, the GI50 was 1.79 µM and the TGI amounted to 5.22 µM.

`COC(=O)c1ccc([C@H]2c3[nH]c4ccccc4c3C[C@H](C(=O)OC)N2C(=O)CCl)cc1`: the GI50 was 0.472 µM and the TGI came to 1.9 µM.

With `COc1cnc2c(c1)C(=O)c1c-2n(CCCNCC2CC2)c(=O)c2cc(F)ccc12`, the GI50 was 0.316 µM and the TGI is 0.904 µM.

As for `O=C(N/N=C\c1cc(Cl)ccc1O)c1ccncc1`, the GI50 is 1.83 µM and the TGI is 9.82 µM.

With `COc1ccc2oc(=O)cc(C3c4ccc([nH]4)C(c4cc(=O)oc5ccc(OC)cc45)c4ccc([nH]4)C(c4cc(=O)oc5ccc(OC)cc45)c4ccc([nH]4)C(c4cc(=O)oc5ccc(OC)cc45)c4ccc3[nH]4)c2c1` (stereo unspecified), the GI50 was 0.401 µM and the TGI worked out at 1.91 µM.

As to `O=c1cc(N2CCOCC2)oc2c(-c3ccc4c(c3)OCCO4)csc12`, the GI50 is 0.629 µM and the TGI was 3.75 µM.

As for `N#Cc1c(-c2ccc(Cl)cc2)cc(-c2cc(O)ccc2O)nc1N`, the GI50 is 0.769 µM and the TGI was found to be 3.72 µM.

In the case of `O=C(Nc1ccc(-n2ccc3c(NC(=O)c4ccccc4)nccc32)cc1)c1cccc(C(F)(F)F)c1`, the GI50 was 1.2 µM and the TGI worked out at 7.3 µM.

As to `CCC(=O)Oc1cc(/C=C/C(=O)O[C@H]2C[C@H]3CN4CCc5c([nH]c6cc(OC)ccc56)[C@@H]4C[C@@H]3[C@@H](C(=O)OC)[C@@H]2OC)ccc1OC`, the GI50 is 4.76 µM and the TGI was 33.3 µM.

As to `Clc1ccc(CN2COc3c(ccc4cccnc34)C2)cc1Cl`, the GI50 was 0.543 µM and the TGI is 2.16 µM.

Regarding `O=C(O)c1cc2cc(OCc3ccccc3)ccc2[nH]1`, the GI50 is > 100 µM and the TGI is > 100 µM.

As to `CS(C)(=O)=O`, the GI50 was > 100000 µM and the TGI was > 100000 µM.

`CO/N=C/C=C\C(=O)N/C=C/C[C@H]1/C=C/[C@H](O)/C=C\C=C\c2cccc(O)c2C(=O)O1`: the GI50 is 0.286 µM and 0.187 µM; the TGI was 29.9 µM and 17.5 µM.
